Holding throughout (test): NCI anticancer screen, dose series, 48 h
The test system of assay [1] is DLD-1.
Assay [2] deals with EKVX.
For assay [3], the system named is M19-MEL.
The test system of assay [4] is NCI-H23.
In assay [5] the test system is OVCAR-4.
Assay [6] concerns RPMI-8226.
Assay [7] relates to SN12C.
Assay [8] relates to SR.
Assay [9] concerns SW-620.
Assay [10] deals with UACC-257.
Assay [11] concerns BT-549.
In assay [12] the test system is HCT-116.
Assay [13] has as its system Hs-578T.
Assay [14] has as its system MCF7.
Assay [15] has as its system MDA-MB-231.
In assay [16] the test system is MDA-MB-435.
Assay [17] deals with MDA-N.
Assay [18] has as its system RXF 393.
Assay [19] relates to NCI/ADR-RES.
Assay [20] concerns DMS-273.

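Exposure lasted 48 hours, with cells grown in 96-well plates and compounds tested at five concentrations. Here, GI50 denotes the concentration required for 50% inhibition of growth.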 Activity calls are given as the source filed them. Rule as the data show it: active = GI50 up to about 1.1 µM and inactive = higher. Where a SMILES comes first, the peptide text is derived from it.

Turning to `CCOC(C)C(/C=N/NC(N)=S)=NNC(N)=S` (stereo unspecified) [GLOXAZONE], the GI50 in assay [1] is > 100 µM (inactive); in assay [2], 0.248 µM (active); in [3], > 100 µM (inactive); in [4] it was > 100 µM (inactive); in [5] it was > 100 µM (inactive); in assay [6], 0.0643 µM (active). The GI50 is > 100 µM (inactive) in assay [7], < 0.0251 µM (active) in assay [8], > 100 µM (inactive) in assay [9] and < 0.0411 µM (active) in assay [10].

In the case of `COC(=O)C1=C(C(=O)OC)C(C(=O)OC)C(C(=O)OC)C(C(=O)OC)(C(=O)OC)C(C(=O)OC)=C1C(=O)OC` (stereo unspecified), the GI50 was 18.2 µM (inactive) in assay [11]; 1.81 µM (inactive) in assay [1]; 18.3 µM (inactive) in [2]; 7.36 µM (inactive) in [12]; 34.5 µM (inactive) in [13]; 12.8 µM (inactive) in [3]. For the same molecule, the GI50 was 15.4 µM (inactive) in [14]; 20.9 µM (inactive) in assay [15]; 18.7 µM (inactive) in assay [16]; 17.1 µM (inactive) in assay [17]; 18.6 µM (inactive) in [4]; 22.8 µM (inactive) in [5]. Also, the GI50 in assay [6] was 2.24 µM (inactive); in [18] it was 7.43 µM (inactive); in [7] it was 14.3 µM (inactive); in [8] it was 0.285 µM (active); in [9], 5.08 µM (inactive); in [10], 13.9 µM (inactive).

Take `CC1=NN(C(=O)c2ccccc2O)C(=O)/C1=C/c1cccc(O)c1`: the GI50 in assay [11] is 0.392 µM (active); in assay [1], 0.167 µM (active); in [2] it was 2.77 µM (inactive); in assay [12], 0.244 µM (active); in assay [3] it was 0.596 µM (active); in assay [14] it was 1.6 µM (inactive). Besides, the GI50 was 38.8 µM (inactive) in assay [15]; 0.603 µM (active) in assay [17]; 0.405 µM (active) in [4]; 6.21 µM (inactive) in assay [19]; 2.27 µM (inactive) in assay [5]; 0.731 µM (active) in [6]. Besides, the GI50 was 0.161 µM (active) in assay [18]; 45.9 µM (inactive) in assay [7]; 0.938 µM (active) in assay [8]; 3.49 µM (inactive) in assay [9]; 1.21 µM (inactive) in assay [10].

On to `CCC(C)C1NC(=O)C2CCCN2C(=O)CNC(=O)C(C)NC(=O)C(Cc2ccccc2)NC(=O)C(C(C)C)NC1=O` (stereo unspecified) (cyclo(GPIVFA); configuration not given here), for which the GI50 in assay [1], in assay [2], in assay [12], in assay [3], in assay [4] and in assay [5] was > 100 µM (inactive) throughout. The GI50 in assay [6], in assay [18], in [7], in assay [8], in assay [9] and in assay [10] was > 100 µM (inactive) throughout.

`CCC(=O)CC(=O)CCC(=O)Nc1cc(C)ccc1C`: the GI50 in assay [1], in assay [2], in [12], in assay [4], in [6] and in assay [18] was > 100 µM (inactive) each time. Moreover, the GI50 in [7], in [8] and in assay [9] was > 100 µM (inactive) throughout.

For `CC1=CC(=O)C2=C(C)CCC3C(C)C(=O)OC3C12` (stereo unspecified), the GI50 in [11], in assay [2], in assay [12], in assay [13], in assay [14] and in assay [15] was > 100 µM (inactive) each time. The GI50 in assay [16], in [17], in assay [4], in assay [19], in assay [5] and in [6] was > 100 µM (inactive) in each case. Further, the GI50 in assay [18] was > 100 µM (inactive); in assay [7] it was > 100 µM (inactive); in [8], 48 µM (inactive); in [9], > 100 µM (inactive); in [10], > 100 µM (inactive).

Take `Cc1ccc(Nc2c(C#N)[n+]([O-])c3cc(Cl)ccc3[n+]2[O-])cc1`: the GI50 in [11] was 9.46 µM (inactive); in [2], > 81.3 µM (inactive); in assay [12], 8.79 µM (inactive); in assay [13] it was > 100 µM (inactive); in assay [14], 15.3 µM (inactive); in [15], > 100 µM (inactive). The GI50 was 44.7 µM (inactive) in assay [16]; > 53.8 µM (inactive) in assay [17]; 40.5 µM (inactive) in assay [4]; 9.95 µM (inactive) in assay [19]; 24.1 µM (inactive) in assay [5]; 4.61 µM (inactive) in [6]. Moreover, the GI50 in [18] is > 22.1 µM (inactive); in assay [7] it was > 33.2 µM (inactive); in assay [8] it was 7.98 µM (inactive); in assay [9], 37.5 µM (inactive); in [10] it was > 76.7 µM (inactive).

On to `CC1=C(C(=O)Nc2ccccc2C)C(c2ccco2)C(C(=O)Nc2ccccc2C)=C(C)N1C`, for which the GI50 in assay [1], in assay [2], in [12], in [3], in [4] and in [5] was > 100 µM (inactive) throughout. For the same molecule, the GI50 was > 100 µM (inactive) in [6]; > 100 µM (inactive) in assay [18]; > 100 µM (inactive) in assay [7]; 72.8 µM (inactive) in assay [8]; > 100 µM (inactive) in assay [9]; > 100 µM (inactive) in [10].

In the case of `COC(=O)[C@@]12OC[C@]34C([C@@H](O)C1O)[C@@]1(C)CC(=O)C(OC(=O)CC(C)C(F)(F)F)=C(C)C1C[C@H]3OC(=O)[C@H](O)[C@H]42` (stereo partly specified), the GI50 in assay [20] was 0.379 µM (active); in assay [2] it was 26.5 µM (inactive); in assay [12], 2.47 µM (inactive); in [3] it was 0.434 µM (active); in assay [4], 1.38 µM (inactive); in [5] it was 14.7 µM (inactive). For the same molecule, the GI50 in [6] was 0.594 µM (active); in assay [18], 4.62 µM (inactive); in assay [7], 2 µM (inactive); in [8] it was 2.73 µM (inactive); in assay [9] it was 1.21 µM (inactive); in assay [10], 2.93 µM (inactive).

With `O=C(N/C(=C\c1cc(Cl)ccc1Cl)c1nc2cc(Cl)ccc2[nH]1)c1ccccc1`, the GI50 was 12.8 µM (inactive) in assay [1]; 23 µM (inactive) in [2]; 10.5 µM (inactive) in assay [12]; 16 µM (inactive) in assay [3]; 13 µM (inactive) in [4]; 25.8 µM (inactive) in assay [5]. Further, the GI50 in assay [6] is 12.2 µM (inactive); in assay [18] it was 15.4 µM (inactive); in assay [7] it was 19.5 µM (inactive); in [8] it was 5.43 µM (inactive); in assay [9], 16.9 µM (inactive); in assay [10], 15 µM (inactive).

The record behind these values is ChEMBL document CHEMBL1201862, “PubChem BioAssay data set” (2004).
